The values below come from ChEMBL document CHEMBL2417541, “Aromatic glucosides from the seeds of Prunus davidiana” (J Nat Prod, 2013).

Molecules are shown by their SMILES. Some results are limits rather than exact numbers.

The subject of one assay is A2780. Kind of assay: Cytotoxicity against human A2780 cells. The assay is classed as cell-based.
For the next assay, the system named is HCT-8. Nature of the assay: Cytotoxicity against human HCT8 cells. The assay is classed as cell-based.
For assay [1], the system named is Liver microsomes. Nature of the assay: Antioxidant activity in rat liver microsomes assessed as inhibition of Fe2+-cysteine-induced lipid peroxidation measured malondialdehyde level at 10^-6 M/L incubated for 15 mins prior to FeSO4 addition measured after 15 mins by TBA method relative to control. The assay is classed as functional. The following applies: Microsome.

Assay [2] concerns Liver microsomes. Nature of the assay: Antioxidant activity in rat liver microsomes assessed as inhibition of Fe2+-cysteine-induced lipid peroxidation measured malondialdehyde level at 10^-5 M/L incubated for 15 mins prior to FeSO4 addition measured after 15 mins by TBA method relative to control. The assay is classed as functional. To be noted: Microsome.
The test system of assay [3] is Liver microsomes. Kind of assay: Antioxidant activity in rat liver microsomes assessed as inhibition of Fe2+-cysteine-induced lipid peroxidation measured malondialdehyde level at 10^-4 M/L incubated for 15 mins prior to FeSO4 addition measured after 15 mins by TBA method relative to control. The following applies: Microsome. The assay is classed as functional.
A further assay concerns BGC-823. Kind of assay: Cytotoxicity against human BGC823 cells. The assay is classed as cell-based.
The subject of a further assay is A549. Nature of the assay: Cytotoxicity against human A549 cells. The class given is cell-based.
A further assay relates to Bel-7402. Nature of the assay: Cytotoxicity against human Bel7402 cells. The assay is classed as cell-based.

In the case of `O=C(OC[C@H]1O[C@@H](OC[C@H]2O[C@@H](OC(=O)c3ccccc3)[C@H](O)[C@@H](O)[C@@H]2O)[C@H](O)[C@@H](O)[C@@H]1O)c1ccccc1`, the IC50 with A2780, with HCT-8, in the assay with BGC-823, in the assay with A549 and with Bel-7402 was over 10 µM each time. The inhibition with Liver microsomes [1] was 56%; with Liver microsomes [2], 66%; in the assay with Liver microsomes [3], 56%.

For the molecule `CCOC(=O)[C@H](O[C@@H]1O[C@H](CO[C@@H]2O[C@H](CO)[C@@H](O)[C@H](O)[C@H]2O)[C@@H](O)[C@H](O)[C@H]1O)c1ccccc1`, the IC50 with A2780, in the assay on HCT-8, in the assay on BGC-823, in the assay on A549 and with Bel-7402 was over 10 µM in each case. The inhibition with Liver microsomes [1] amounted to 56%; with Liver microsomes [2], 51%; in the assay on Liver microsomes [3] it was 51%.

Turning to `N#C[C@H](O[C@@H]1O[C@H](CO[C@@H]2O[C@H](COC(=O)c3cccnc3)[C@@H](O)[C@H](O)[C@H]2O)[C@@H](O)[C@H](O)[C@H]1O)c1ccccc1`, the IC50 in the assay on A2780, with HCT-8, with BGC-823, in the assay with A549 and in the assay on Bel-7402 was over 10 µM each time. The inhibition in the assay with Liver microsomes [1] is 56%; with Liver microsomes [2], 67%; in the assay on Liver microsomes [3], 88%.

As to `COc1cc(CO)ccc1O[C@@H]1O[C@H](COC(=O)c2ccccc2)[C@@H](O)[C@H](O)[C@H]1O`, the IC50 in the assay on A2780, with HCT-8, in the assay with BGC-823, in the assay with A549 and in the assay with Bel-7402 was over 10 µM throughout. For the same molecule, the inhibition in the assay with Liver microsomes [1] stood at 41%; with Liver microsomes [2] it was 42%; in the assay on Liver microsomes [3], 51%.

As to `O=C(OC[C@H]1O[C@@H](OC[C@H](O)[C@@H](O)c2ccc(O)cc2)[C@H](O)[C@@H](O)[C@@H]1O)c1ccccc1`, the IC50 in the assay with A2780, in the assay on HCT-8, with BGC-823, in the assay with A549 and in the assay on Bel-7402 was over 10 µM each time. The inhibition in the assay with Liver microsomes [1] is 57%; with Liver microsomes [2], 64%; with Liver microsomes [3], 88%.

Regarding `O=C(OC[C@H]1O[C@@H](OC[C@H]2O[C@@H](OCc3ccccc3)[C@H](O)[C@@H](O)[C@@H]2O)[C@H](O)[C@@H](O)[C@@H]1O)c1ccccc1`, the IC50 with A2780, in the assay on HCT-8, in the assay on BGC-823, in the assay on A549 and in the assay with Bel-7402 was over 10 µM in each case. For the same molecule, the values for the inhibition in the assay with Liver microsomes [1], with Liver microsomes [2] and in the assay with Liver microsomes [3] were 59%, 50% and 55%, respectively.

For `O=C(OC[C@H]1O[C@@H](O[C@@H](C(=O)O)c2ccccc2)[C@H](O)[C@@H](O)[C@@H]1O)c1ccccc1`, the IC50 with A2780, in the assay with HCT-8, in the assay on BGC-823, in the assay with A549 and in the assay with Bel-7402 was over 10 µM each time. In addition, the inhibition with Liver microsomes [1] stood at 53%; with Liver microsomes [2], 60%; with Liver microsomes [3], 67%.
